Data from paper PMC6576746, “Rational discovery of dual-indication multi-target PDE/Kinase inhibitor for precision anti-cancer therapy using structural systems pharmacology” (PLoS Computational Biology, 2019).

Columns and labels:
Test in all cases: biochemical
Set-up in all cases: DiscoverX KinomeScan competition binding assay across human kinases; per cent of control at 10 and 100 uM
CAMKK2 = CAMKK2 (Homo sapiens, UniProt Q96RR4); details: competition binding, % of control; read-out: Percent Control (100 uM Levosimendan)
Method in brief: (§1)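 KinomeScan competition binding was run across a human kinase panel at 10 μM and 100 μM levosimendan. Results are %control = (test − positive control)/(negative control − positive control) × 100.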

[1] = biological target: T1, ABL1(T315I)-phosphorylated (Homo sapiens, UniProt P00519, T315I); details: competition binding, % of control; read-out: Percent Control (100 uM Levosimendan)
T1 construct: phosphorylated
Method in brief: as §1

[2] = biological target: T2, JAK1(JH1domain-catalytic) (Homo sapiens, UniProt P23458); details: competition binding, % of control; read-out: Percent Control (100 uM Levosimendan)
T2 construct: JH1domain-catalytic
Method in brief: as §1

NEK4 = NEK4 (Homo sapiens, UniProt P51957); details: competition binding, % of control; read-out: Percent Control (100 uM Levosimendan)
Method in brief: as §1

PIP5K1C = PIP5K1C (Homo sapiens, UniProt O60331); details: competition binding, % of control
PIP5K1C, sequence (O60331 whole entry): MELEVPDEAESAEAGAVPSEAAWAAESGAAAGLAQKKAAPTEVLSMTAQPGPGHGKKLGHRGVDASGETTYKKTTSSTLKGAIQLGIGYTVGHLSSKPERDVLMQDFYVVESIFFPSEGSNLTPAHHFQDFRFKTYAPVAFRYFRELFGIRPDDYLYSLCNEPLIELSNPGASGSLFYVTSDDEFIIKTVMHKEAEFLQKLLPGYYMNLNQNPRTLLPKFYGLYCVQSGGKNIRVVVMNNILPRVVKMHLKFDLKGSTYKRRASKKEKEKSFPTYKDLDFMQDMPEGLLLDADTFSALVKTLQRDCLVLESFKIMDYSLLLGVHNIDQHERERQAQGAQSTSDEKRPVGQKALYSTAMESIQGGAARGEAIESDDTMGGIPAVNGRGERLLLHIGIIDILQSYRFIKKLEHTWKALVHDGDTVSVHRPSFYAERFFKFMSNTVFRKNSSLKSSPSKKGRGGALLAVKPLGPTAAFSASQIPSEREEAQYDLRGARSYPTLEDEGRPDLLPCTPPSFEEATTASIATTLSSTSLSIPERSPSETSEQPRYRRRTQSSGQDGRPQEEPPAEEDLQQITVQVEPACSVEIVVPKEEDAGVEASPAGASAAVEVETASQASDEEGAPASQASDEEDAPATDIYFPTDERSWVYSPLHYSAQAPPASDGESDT
Method in brief: as §1

HIPK2 = HIPK2 (Homo sapiens, UniProt Q9H2X6); details: competition binding, % of control; read-out: Percent Control (100 uM Levosimendan)
Method in brief: as §1

BRK = biological target: T3, BRK (Homo sapiens, UniProt Q13882); details: competition binding, % of control; read-out: Percent Control (100 uM Levosimendan)
T3 construct: gene PTK6
T3 sequence (Q13882 whole entry): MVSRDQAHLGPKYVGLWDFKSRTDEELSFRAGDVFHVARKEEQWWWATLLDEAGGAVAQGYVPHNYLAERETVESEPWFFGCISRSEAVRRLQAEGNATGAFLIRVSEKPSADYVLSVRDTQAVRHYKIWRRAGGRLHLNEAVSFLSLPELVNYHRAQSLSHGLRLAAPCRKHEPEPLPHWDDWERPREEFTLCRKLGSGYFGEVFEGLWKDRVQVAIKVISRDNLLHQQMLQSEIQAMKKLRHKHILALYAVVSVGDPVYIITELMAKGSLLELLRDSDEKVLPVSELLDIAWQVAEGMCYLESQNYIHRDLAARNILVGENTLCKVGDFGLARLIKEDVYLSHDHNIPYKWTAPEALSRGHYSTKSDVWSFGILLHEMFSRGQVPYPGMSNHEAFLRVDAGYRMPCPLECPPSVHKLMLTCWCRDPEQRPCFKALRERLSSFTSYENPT
Method in brief: as §1

PKN2 = PKN2 (Homo sapiens, UniProt Q16513); details: competition binding, % of control
PKN2, sequence (Q16513 whole entry): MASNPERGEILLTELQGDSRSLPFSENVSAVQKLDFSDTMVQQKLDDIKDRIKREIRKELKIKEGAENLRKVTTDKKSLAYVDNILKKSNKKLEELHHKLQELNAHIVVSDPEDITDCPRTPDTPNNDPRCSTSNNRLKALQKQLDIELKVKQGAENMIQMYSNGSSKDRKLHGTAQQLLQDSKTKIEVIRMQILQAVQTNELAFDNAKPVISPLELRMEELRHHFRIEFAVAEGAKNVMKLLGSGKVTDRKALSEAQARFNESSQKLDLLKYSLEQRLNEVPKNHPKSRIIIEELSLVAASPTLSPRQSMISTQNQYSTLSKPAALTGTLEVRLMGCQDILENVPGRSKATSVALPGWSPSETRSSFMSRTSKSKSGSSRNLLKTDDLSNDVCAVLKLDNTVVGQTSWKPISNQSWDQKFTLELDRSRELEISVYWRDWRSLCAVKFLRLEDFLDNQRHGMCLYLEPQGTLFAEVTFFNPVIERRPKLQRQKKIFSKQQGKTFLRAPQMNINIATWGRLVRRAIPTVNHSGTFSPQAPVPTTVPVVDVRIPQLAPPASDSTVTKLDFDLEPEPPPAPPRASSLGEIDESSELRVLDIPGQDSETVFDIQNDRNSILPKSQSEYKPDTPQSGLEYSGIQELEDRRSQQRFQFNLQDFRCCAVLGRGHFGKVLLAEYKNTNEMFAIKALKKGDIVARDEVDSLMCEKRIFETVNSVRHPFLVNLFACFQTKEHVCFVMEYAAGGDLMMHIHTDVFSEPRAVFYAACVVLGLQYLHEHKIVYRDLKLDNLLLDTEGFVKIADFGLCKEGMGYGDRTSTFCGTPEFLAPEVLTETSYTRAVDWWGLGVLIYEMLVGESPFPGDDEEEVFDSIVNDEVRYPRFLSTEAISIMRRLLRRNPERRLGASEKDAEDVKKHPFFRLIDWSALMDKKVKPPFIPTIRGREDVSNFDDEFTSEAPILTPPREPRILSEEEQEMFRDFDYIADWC
Method in brief: as §1

[3] = biological target: T4, ABL1(F317L)-phosphorylated (Homo sapiens, UniProt P00519, F317L); details: competition binding, % of control; read-out: Percent Control (100 uM Levosimendan)
T4 construct: phosphorylated
Method in brief: as §1

ERN1 = ERN1 (Homo sapiens, UniProt O75460); details: competition binding, % of control; read-out: Percent Control (100 uM Levosimendan)
Method in brief: as §1

NIM1 = biological target: T5, NIM1 (Homo sapiens, UniProt Q8IY84); details: competition binding, % of control; read-out: Percent Control (100 uM Levosimendan)
T5 construct: gene NIM1K
T5 sequence (Q8IY84 whole entry): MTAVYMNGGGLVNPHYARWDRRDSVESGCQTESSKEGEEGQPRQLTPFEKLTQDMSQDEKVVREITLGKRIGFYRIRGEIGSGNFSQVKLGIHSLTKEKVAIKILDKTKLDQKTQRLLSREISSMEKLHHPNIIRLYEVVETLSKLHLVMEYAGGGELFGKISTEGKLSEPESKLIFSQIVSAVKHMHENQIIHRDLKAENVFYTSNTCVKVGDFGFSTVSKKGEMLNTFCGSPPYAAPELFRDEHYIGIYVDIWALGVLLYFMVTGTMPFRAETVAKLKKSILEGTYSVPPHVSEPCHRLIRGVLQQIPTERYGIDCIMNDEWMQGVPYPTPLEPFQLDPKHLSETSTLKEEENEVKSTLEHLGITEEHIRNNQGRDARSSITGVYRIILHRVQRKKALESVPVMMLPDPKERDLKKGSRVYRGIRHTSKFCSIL
Method in brief: as §1

RIPK2 = RIPK2 (Homo sapiens, UniProt O43353); details: competition binding, % of control; read-out: Percent Control (100 uM Levosimendan)
Method in brief: as §1

TGFBR2 = TGFBR2 (Homo sapiens, UniProt P37173); details: competition binding, % of control; read-out: Percent Control (100 uM Levosimendan)
Method in brief: as §1

FGFR1 = FGFR1 (Homo sapiens, UniProt P11362); details: competition binding, % of control
FGFR1, sequence (P11362 whole entry): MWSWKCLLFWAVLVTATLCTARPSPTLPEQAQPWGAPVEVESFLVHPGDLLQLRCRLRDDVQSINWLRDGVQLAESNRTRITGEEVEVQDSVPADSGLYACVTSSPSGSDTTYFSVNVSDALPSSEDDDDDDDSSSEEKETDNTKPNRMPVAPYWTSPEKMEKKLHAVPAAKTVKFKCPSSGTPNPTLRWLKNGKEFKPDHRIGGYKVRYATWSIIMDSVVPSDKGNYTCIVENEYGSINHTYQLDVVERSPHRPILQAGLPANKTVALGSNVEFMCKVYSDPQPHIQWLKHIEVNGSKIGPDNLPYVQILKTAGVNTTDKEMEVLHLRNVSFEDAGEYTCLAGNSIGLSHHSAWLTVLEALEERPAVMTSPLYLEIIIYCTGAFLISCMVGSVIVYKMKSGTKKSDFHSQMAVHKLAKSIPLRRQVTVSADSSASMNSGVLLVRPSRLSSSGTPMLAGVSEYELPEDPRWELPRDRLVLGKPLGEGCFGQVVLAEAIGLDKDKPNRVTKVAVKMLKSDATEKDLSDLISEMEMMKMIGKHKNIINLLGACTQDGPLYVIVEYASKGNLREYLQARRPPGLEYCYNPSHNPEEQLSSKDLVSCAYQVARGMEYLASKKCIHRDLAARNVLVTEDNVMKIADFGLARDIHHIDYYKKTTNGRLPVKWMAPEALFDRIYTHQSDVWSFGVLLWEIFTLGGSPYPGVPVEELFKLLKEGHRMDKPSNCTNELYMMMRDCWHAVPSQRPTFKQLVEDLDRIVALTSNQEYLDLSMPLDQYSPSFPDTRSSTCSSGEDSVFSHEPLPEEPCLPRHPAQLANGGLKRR
Method in brief: as §1

NEK10 = NEK10 (Homo sapiens, UniProt Q6ZWH5); details: competition binding, % of control; read-out: Percent Control (100 uM Levosimendan)
Method in brief: as §1

[4] = biological target: T6, TYK2(JH2domain-pseudokinase) (Homo sapiens, UniProt P29597); details: competition binding, % of control
T6 construct: JH2domain-pseudokinase
T6 sequence (P29597 whole entry): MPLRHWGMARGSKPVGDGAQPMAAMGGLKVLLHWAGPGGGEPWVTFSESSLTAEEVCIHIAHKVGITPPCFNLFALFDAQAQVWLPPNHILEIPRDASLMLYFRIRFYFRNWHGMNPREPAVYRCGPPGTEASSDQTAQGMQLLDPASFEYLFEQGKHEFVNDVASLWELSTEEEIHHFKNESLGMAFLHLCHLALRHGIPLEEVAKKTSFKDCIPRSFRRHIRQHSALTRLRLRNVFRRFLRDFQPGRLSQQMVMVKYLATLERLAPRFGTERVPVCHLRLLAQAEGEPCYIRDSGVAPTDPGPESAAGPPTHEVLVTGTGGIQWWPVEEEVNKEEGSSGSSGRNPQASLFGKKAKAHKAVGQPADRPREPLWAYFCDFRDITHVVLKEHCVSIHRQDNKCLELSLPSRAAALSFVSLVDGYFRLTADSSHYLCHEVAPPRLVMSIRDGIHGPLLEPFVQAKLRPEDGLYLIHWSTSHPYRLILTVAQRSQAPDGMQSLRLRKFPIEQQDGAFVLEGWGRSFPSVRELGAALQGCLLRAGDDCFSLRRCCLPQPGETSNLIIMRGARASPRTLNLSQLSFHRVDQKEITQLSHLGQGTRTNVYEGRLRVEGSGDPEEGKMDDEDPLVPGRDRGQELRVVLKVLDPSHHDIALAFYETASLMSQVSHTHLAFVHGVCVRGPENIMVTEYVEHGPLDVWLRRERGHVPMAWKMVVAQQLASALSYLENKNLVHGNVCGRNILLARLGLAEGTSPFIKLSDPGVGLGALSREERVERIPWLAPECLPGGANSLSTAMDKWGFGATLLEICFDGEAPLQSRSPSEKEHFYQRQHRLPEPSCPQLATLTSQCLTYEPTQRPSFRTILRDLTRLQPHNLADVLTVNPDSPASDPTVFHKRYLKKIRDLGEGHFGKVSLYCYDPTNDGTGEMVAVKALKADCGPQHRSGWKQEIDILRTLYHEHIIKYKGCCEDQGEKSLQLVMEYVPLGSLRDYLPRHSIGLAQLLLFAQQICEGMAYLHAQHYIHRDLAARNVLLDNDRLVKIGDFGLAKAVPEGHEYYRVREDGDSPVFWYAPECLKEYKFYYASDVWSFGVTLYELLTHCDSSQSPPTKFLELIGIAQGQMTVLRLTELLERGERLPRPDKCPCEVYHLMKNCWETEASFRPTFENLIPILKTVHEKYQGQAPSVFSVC
Method in brief: as §1

EGFR(L861Q) = EGFR(L861Q) (Homo sapiens, UniProt P00533, L861Q); details: competition binding, % of control; read-out: Percent Control (100 uM Levosimendan)
Method in brief: as §1

[5] = biological target: T7, ABL1(M351T)-phosphorylated (Homo sapiens, UniProt P00519, M351T); details: competition binding, % of control; read-out: Percent Control (100 uM Levosimendan)
T7 construct: phosphorylated
Method in brief: as §1

[6] = read-out: Percent Control (10 uM Levosimendan)
[7] = read-out: Percent Control (100 uM Levosimendan)

Structure (SMILES): C[C@@H]1CC(=O)NN=C1c1ccc(NN=C(C#N)C#N)cc1 [levosimendan]
- remaining binding at 100 µM (CAMKK2): 54%
- remaining binding at 100 µM [1]: 64%
- remaining binding at 100 µM [2]: 100%
- remaining binding at 100 µM (NEK4): 100%
- remaining binding at 10 µM (PIP5K1C; [6]): 91%
- remaining binding at 100 µM (PIP5K1C; [7]): 50%
- remaining binding at 100 µM (HIPK2): 69%
- remaining binding at 100 µM (BRK): 85%
- remaining binding at 10 µM (PKN2; [6]): 94%
- remaining binding at 100 µM (PKN2; [7]): 49%
- remaining binding at 100 µM [3]: 59%
- remaining binding at 100 µM (ERN1): 79%
- remaining binding at 100 µM (NIM1): 65%
- remaining binding at 100 µM (RIPK2): 91%
- remaining binding at 100 µM (TGFBR2): 89%
- remaining binding at 10 µM (FGFR1; [6]): 98%
- remaining binding at 100 µM (FGFR1; [7]): 50%
- remaining binding at 100 µM (NEK10): 100%
- remaining binding at 10 µM [4, 6]: 100%
- remaining binding at 100 µM [4, 7]: 11%
- remaining binding at 100 µM (EGFR(L861Q)): 71%
- remaining binding at 100 µM [5]: 79%
